Test results reported in ChEMBL document CHEMBL1201862, “PubChem BioAssay data set” (2004).
Active and inactive are the calls of the source. Rule as the data show it, for most assays here: actives have a measured EC50 and inactives only a lower limit. Peptide text beside a SMILES is read from it. * marks the point of attachment. Cbz = O=C(OCc1ccccc1)*

Legend:
Cytochrome P450 3A4 = Cytochrome P450 3A4 (Homo sapiens, UniProt P08684);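 also: CYP3A4 tested as one member of a cytochrome P450 panel screen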
Sequence of Cytochrome P450 3A4 (P08684 whole entry): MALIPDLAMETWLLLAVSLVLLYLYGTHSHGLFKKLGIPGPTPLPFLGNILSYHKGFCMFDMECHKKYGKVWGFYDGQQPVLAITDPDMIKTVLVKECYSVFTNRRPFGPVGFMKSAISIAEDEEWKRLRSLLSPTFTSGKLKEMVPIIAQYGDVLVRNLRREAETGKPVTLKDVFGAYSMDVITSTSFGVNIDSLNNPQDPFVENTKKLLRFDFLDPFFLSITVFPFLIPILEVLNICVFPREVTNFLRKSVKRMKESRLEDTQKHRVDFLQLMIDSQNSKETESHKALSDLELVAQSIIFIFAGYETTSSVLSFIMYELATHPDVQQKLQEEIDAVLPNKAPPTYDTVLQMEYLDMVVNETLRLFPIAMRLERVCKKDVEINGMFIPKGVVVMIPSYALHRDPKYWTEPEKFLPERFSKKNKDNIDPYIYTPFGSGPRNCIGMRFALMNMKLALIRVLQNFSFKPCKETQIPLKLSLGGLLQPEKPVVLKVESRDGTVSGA

Cytochrome P450 2C9 = Cytochrome P450 2C9 (Homo sapiens, UniProt P11712)
Sequence of Cytochrome P450 2C9 (P11712 whole entry): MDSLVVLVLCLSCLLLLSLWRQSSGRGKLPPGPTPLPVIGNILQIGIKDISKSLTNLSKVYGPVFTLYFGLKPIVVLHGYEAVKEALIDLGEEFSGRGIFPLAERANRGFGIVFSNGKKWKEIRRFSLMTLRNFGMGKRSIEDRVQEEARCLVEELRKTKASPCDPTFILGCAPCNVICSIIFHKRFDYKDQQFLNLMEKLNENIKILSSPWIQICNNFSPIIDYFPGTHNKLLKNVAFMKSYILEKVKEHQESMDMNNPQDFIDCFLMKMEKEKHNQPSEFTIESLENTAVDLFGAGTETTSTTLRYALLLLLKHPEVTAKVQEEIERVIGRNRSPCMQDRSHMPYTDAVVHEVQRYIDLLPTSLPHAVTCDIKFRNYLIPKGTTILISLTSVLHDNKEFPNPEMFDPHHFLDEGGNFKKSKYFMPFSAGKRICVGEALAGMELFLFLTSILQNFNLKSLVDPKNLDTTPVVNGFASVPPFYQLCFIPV

[1] = NIH3T3 cell viability loss – ATP luminescence, mouse fibroblasts, counter-screen, dose response (AID 2010); type: functional, cell-based;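 also: cells exposed to compound for about 90 hours before reading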
[2] = Trypanosoma cruzi growth suppression in host cells – NIH3T3 host cells, beta-gal luminescence, confirmation (AID 2044); type: functional, cell-based;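 also: intracellular parasites grown in NIH/3T3 mouse fibroblasts as host cells; luminescent beta-galactosidase reporter signal from transgenic T. cruzi replicating inside host cells; inhibitors lower the luminescence signal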
[3] = target: T1, Corticotropin-releasing factor receptor 2/Corticotropin-releasing factor-binding protein (Homo sapiens, UniProt P24387+Q13324); experiment: activators of CRF receptor 2 with binding protein – uHTS hits, confirmation (AID 602473); type: functional; conditions: read-out: EC50_Mean
T1 sequence (Q13324 whole entry): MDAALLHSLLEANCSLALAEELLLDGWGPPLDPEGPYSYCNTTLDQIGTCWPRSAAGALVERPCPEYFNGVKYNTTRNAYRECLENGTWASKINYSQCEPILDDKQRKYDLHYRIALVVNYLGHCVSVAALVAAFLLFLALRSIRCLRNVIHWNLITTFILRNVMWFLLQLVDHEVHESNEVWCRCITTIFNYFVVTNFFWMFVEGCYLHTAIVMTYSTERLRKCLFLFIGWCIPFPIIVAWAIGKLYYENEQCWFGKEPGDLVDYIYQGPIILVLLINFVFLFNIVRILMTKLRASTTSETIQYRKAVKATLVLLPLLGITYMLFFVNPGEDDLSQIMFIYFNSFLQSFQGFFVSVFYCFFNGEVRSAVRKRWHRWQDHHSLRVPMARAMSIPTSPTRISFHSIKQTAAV
T1 sequence (P24387 whole entry): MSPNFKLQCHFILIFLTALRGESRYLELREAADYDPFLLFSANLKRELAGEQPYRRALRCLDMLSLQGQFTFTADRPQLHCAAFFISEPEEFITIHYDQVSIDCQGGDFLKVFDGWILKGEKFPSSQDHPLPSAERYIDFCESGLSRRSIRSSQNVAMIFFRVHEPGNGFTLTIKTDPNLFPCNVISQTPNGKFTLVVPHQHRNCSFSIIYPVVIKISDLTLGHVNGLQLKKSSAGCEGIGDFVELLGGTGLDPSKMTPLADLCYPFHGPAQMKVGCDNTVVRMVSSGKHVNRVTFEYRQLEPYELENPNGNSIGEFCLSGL

[4] = target: T1, Corticotropin-releasing factor receptor 2/Corticotropin-releasing factor-binding protein; experiment: Dose Response confirmation of uHTS hits for small molecule antagonists of the CRF-binding protein and CRF-R2 receptor complex.; type: functional; conditions: read-out: IC50_Mean
[5] = tested on: Streptococcus sp. 'group A'; experiment: Streptococcus pyogenes SK(-)GAS viability under kanamycin – luminescence, BacTiterGlo, confirmation, counter-screen for streptokinase expression inhibitor project, dose response (AID 1900); type: functional, organism-based
Streptococcus = experiment: GAS UMAA2166 growth inhibition – luminescence, BacTiterGlo, counter-screen for streptokinase expression inhibitor project, dose response (AID 1915); type: functional, organism-based;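 also: potency for reduction of bacterial viability or growth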
Streptokinase A = target: T2, Streptokinase A (Streptococcus pyogenes serotype M1, UniProt P10520); experiment: viability-normalized secreted streptokinase activity reduction – plasminogen activation absorbance, OD405, dose response (AID 1914); type: functional, Streptococcus pyogenes M1 GAS;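 also: secreted streptokinase activity via plasminogen activation per viability signal from cell pellet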
T2 sequence (P10520 whole entry): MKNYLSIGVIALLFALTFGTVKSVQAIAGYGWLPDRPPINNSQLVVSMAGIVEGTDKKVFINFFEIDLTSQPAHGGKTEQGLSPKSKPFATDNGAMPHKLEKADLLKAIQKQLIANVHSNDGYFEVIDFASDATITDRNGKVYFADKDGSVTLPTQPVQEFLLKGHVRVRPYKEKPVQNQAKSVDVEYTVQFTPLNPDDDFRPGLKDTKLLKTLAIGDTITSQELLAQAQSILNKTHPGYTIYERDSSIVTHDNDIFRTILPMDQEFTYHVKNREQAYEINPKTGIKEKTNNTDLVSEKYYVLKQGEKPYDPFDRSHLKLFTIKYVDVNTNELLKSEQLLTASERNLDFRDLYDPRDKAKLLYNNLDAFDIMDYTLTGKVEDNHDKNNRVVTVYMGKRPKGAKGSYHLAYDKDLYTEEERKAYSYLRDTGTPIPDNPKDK

Paired box protein Pax-8 = Paired box protein Pax-8 (Homo sapiens, UniProt Q06710); experiment: PAX8 transcriptional activity inhibition in RMG-I – RMG-I cells, luciferase, cherry-pick, dose response (AID 687027); type: functional, cell-based;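 also: luciferase reporter driven by Pax8 target thyroperoxidase promoter measured by SteadyGlo luminescence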
Sequence of Paired box protein Pax-8 (Q06710 whole entry): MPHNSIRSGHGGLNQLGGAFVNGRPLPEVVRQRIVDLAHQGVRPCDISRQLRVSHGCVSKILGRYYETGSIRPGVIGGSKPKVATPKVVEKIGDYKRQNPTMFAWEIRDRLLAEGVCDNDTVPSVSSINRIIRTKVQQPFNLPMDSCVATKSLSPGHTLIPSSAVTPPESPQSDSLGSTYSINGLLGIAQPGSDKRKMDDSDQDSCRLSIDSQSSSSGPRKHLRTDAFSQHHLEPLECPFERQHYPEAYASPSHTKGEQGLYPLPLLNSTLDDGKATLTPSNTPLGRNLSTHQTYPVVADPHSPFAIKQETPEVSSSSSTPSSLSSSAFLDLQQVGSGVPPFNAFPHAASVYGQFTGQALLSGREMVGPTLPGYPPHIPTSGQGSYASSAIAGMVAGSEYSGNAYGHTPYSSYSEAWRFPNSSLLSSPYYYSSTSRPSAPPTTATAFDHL

## Cc1ccc(OCC(=O)Nc2ccc(S(=O)(=O)Nc3onc(C)c3C)cc2)cc1
Cytochrome P450 3A4
  AC50: 35.5 µM (inconclusive)

## COc1ccc(NS(=O)(=O)c2cc(-c3nnnn3C)ccc2OC)cc1
Cytochrome P450 2C9
  AC50: 25.1 µM (inconclusive)

## O=c1c(-c2cccc(Cl)c2)nc2cncnc2n1C1CC1
Cytochrome P450 3A4
  AC50: 15.8 µM (inconclusive)

## O=C1CC(NS(=O)(=O)c2ccc([N+](=O)[O-])cc2)CN1c1ccc(Cl)cc1 (configuration not stated)
[1]
  EC50: > 60 µM (not active)
[2]
  EC50: 0.477 µM (active)

## O=C(c1cnn2c(C(F)(F)F)cc(-c3cccs3)nc12)N1CCN(Cc2ccccc2)CC1
[1]
  EC50: > 60 µM (not active)
[2]
  EC50: 0.721 µM (active)

## COc1cc(CN2CCN(C(=O)CC(C)C)CC2)cc(OC)c1OC
Cytochrome P450 2C9
  AC50: 28.2 µM (inconclusive)

## CCn1/c(=N\C(=O)CS(=O)(=O)c2ccc(C)cc2)sc2cccc(OC)c21
[1]
  EC50: 8.46 µM (active)
[2]
  EC50: 1.2 µM (active)

## COc1ccc(C(=O)OCC(=O)N(C)C2CCS(=O)(=O)C2)cc1S(=O)(=O)N(C)Cc1ccccc1 (configuration not stated)
[3]
  EC50: > 53 µM (inactive)
[4]
  IC50: > 47.1 µM (inactive)

## COc1cc(CNCc2ccncc2)cc(Br)c1OCc1ccccc1F
[1]
  EC50: > 30 µM (not active)
[2]
  EC50: 2.83 µM (active)

## COc1ccc(N2CCN(C3CCCCC3NS(=O)(=O)c3ccc(Cl)cc3)CC2)cc1 (configuration not stated)
[3]
  EC50: 4.33 µM (active)

## NNc1nc(-c2ccccc2)c2cc(Br)ccc2n1
[5]
  EC50: 10.1 µM (active)
Streptococcus
  EC50: 41.8 µM (active)
Streptokinase A
  EC50: > 150 µM (not active)

## O=S(=O)(NCc1ccccc1)c1ccccc1NCCc1ccccc1
[3]
  EC50: > 53 µM (inactive)
[4]
  IC50: > 47.1 µM (inactive)

## O=c1[nH]c2ccc(Cl)cc2c(-c2ccccc2)c1N1CCN(c2ccccn2)CC1
Streptokinase A
  EC50: 3.83 µM (active)

## Cc1ccc(NC(=O)CN(c2ccc(Cl)cc2)S(=O)(=O)c2cc([N+](=O)[O-])ccc2Cl)c(C)c1
[1]
  EC50: > 60 µM (inconclusive)
[2]
  EC50: 2.42 µM (active)

## Cc1cc(C)n(-c2nc(SCCN(C)C)c3c4c(sc3n2)COC(C)(C)C4)n1
[1]
  EC50: > 30 µM (not active)
[2]
  EC50: 0.836 µM (active)

## CC(C)(CNC(=O)c1cc(Cl)c(O)c(Cl)c1)N1CCCCC1
[3]
  EC50: > 53 µM (inactive)
[4]
  IC50: > 47.1 µM (inactive)

## N#CCCn1c(=O)c(-c2ccccc2)nc2cnc(Oc3ccccc3)nc21
Cytochrome P450 2C9
  AC50: 15.8 µM (inconclusive)

## Cc1ccc(CN2CCN(Cc3nc4c(s3)CCCC4)CC2CCO)cc1 (configuration not stated)
[1]
  EC50: > 60 µM (not active)
[2]
  EC50: 0.546 µM (active)

## COc1ccc(/C=C/c2ccc3cccc(O)c3n2)cc1Br
[5]
  EC50: 0.796 µM (active)
Streptococcus
  EC50: 13.5 µM (active)
Streptokinase A
  EC50: > 150 µM (not active)

## Cc1nnc2n(Cc3ccccc3)c(=O)c3c4c(sc3n12)COC(C)(C)C4
[3]
  EC50: > 53 µM (inactive)
[4]
  IC50: > 47.1 µM (inactive)

## Cc1nnsc1C(=O)NC1CCCc2c1cnn2-c1ccc(C(C)(C)C)cc1 (configuration not stated)
[1]
  EC50: > 60 µM (not active)
[2]
  EC50: 1.98 µM (active)

## CC(C)[C@H](NC(=O)OCc1ccccc1)C(=O)N[C@H](C=O)Cc1ccccc1 (Cbz-Val-Phe-aldehyde)
Cytochrome P450 2C9
  AC50: 39.8 µM (inconclusive)

## O=C(CCC(=O)N1CCOc2ccc(Cl)cc21)NCc1ccccc1
[3]
  EC50: > 53 µM (inactive)

## CCOc1ccc(Nc2nc(N3CCCC3)nc(N3CCN(c4ccc(OC)cc4)CC3)n2)cc1
[1]
  EC50: > 60 µM (not active)
[2]
  EC50: 2.73 µM (active)

## COCCNC(=O)CN(CC1CCCO1)C(=O)CCC(=O)Nc1ccccn1 (configuration not stated)
[3]
  EC50: > 53 µM (inactive)
[4]
  IC50: > 47.1 µM (inactive)

## O=[N+]([O-])c1nn(-c2ccc3c(c2)OCCO3)[n+]([O-])c1NC1CCCC1
[1]
  EC50: > 30 µM (not active)
[2]
  EC50: 0.88 µM (active)

## Cc1ccc2nc(Cl)c(/C=C/C(=O)c3ccco3)cc2c1
[3]
  EC50: > 53 µM (inactive)
[4]
  IC50: > 47.1 µM (inactive)

## Cc1[nH]c(C)c(S(=O)(=O)NCCc2ccccc2)c1C(=O)N1CCCCC1
[3]
  EC50: > 53 µM (inactive)
[4]
  IC50: > 47.1 µM (inactive)

## N=C(N)SCc1cccc(-c2nc3ccccc3c(=O)o2)c1
Cytochrome P450 2C9
  AC50: 5.01 µM (inconclusive)

## CCCNCCC(c1ccco1)c1ccccc1OC (configuration not stated)
[3]
  EC50: > 53 µM (inactive)
[4]
  IC50: > 47.1 µM (inactive)

## Cc1cc(O)ccc1N1C(=O)c2cccc3cc([N+](=O)[O-])cc(c23)C1=O
[1]
  EC50: > 60 µM (not active)
[2]
  EC50: 0.234 µM (active)

## C[C@@H](C(=O)O)c1ccc(C(=O)c2cccs2)cc1 [(R)-SUPROFEN]
Cytochrome P450 2C9
  AC50: 12.6 µM (inconclusive)

## O=C(N/N=C/c1ccc(-c2cccc(C(F)(F)F)c2)o1)c1cccc(F)c1
[1]
  EC50: > 60 µM (not active)
[2]
  EC50: 1.15 µM (active)

## C=CCc1cccc(/C=N/NC(=O)C(C)Nc2cccc(C)c2)c1O (configuration not stated)
[1]
  EC50: > 30 µM (not active)
[2]
  EC50: 1.84 µM (active)

## CCCC(=O)NC(=S)Nc1ccc(S(=O)(=O)Nc2ccc(OCC)cc2)cc1
[3]
  EC50: > 53 µM (inactive)

## Cc1cccc(CN2CCN(CC(=O)O)C2=O)c1
Cytochrome P450 3A4
  AC50: 15.8 µM (inconclusive)

## CC1CC1c1ccc(/C=C(\C#N)C(=O)Nc2cccc(Cl)c2Cl)o1 (configuration not stated)
[3]
  EC50: > 53 µM (inactive)

## Fc1ccc(Cn2nnnc2C(c2ccc(Cl)cc2)N2CC=C(c3ccc(F)cc3)CC2)cc1 (configuration not stated)
[1]
  EC50: > 60 µM (not active)
[2]
  EC50: 1.34 µM (active)

## O=C(CSc1nnc(CNc2ccc(F)cc2)o1)OC1CCCCC1
Cytochrome P450 2C9
  AC50: 17.8 µM (inconclusive)

## Cn1nc([N+](=O)[O-])nc1Oc1ccccc1C(=O)N1CCOCC1
[1]
  EC50: > 60 µM (not active)
[2]
  EC50: 0.117 µM (active)

## CN1CCN(C(CNC(=O)C(=O)Nc2ccc3c(c2)OCCO3)c2ccc(F)cc2)CC1 (configuration not stated)
[1]
  EC50: > 60 µM (not active)
[2]
  EC50: 0.952 µM (active)

## C[C@@H]1CN([C@@H](C)CO)C(=O)c2cc(NC(=O)Nc3ccc(C(F)(F)F)cc3)ccc2O[C@@H](C)CCCCO[C@@H]1CN(C)Cc1ccncc1
Paired box protein Pax-8
  AC50: 9.03 µM (active)

## CCOC(=O)C1=C(CCc2ccccc2)NC(=O)NC1c1cccc([N+](=O)[O-])c1 (configuration not stated)
[3]
  EC50: > 53 µM (inactive)
[4]
  IC50: > 47.1 µM (inactive)

## CC(C)CCN=C(S)NC1CCCC1
Cytochrome P450 2C9
  AC50: 39.8 µM (inconclusive)
Cytochrome P450 3A4
  AC50: 22.4 µM (inconclusive)

## CO[C@H]1C[C@@H](O[C@@H]2[C@H](C)[C@H](O[C@@H]3O[C@@H](C)C[C@@H](N(C)C)[C@@H]3O)[C@H](C)C[C@]3(CO3)C(=O)[C@H](C)[C@H](O)[C@H](C)[C@H](C)OC(=O)[C@@H]2C)O[C@@H](C)[C@H]1O
Cytochrome P450 3A4
  AC50: 12.6 µM (inconclusive)

## Clc1ccc2c(N/N=C/c3cccnc3)ccnc2c1
[1]
  EC50: > 60 µM (not active)
[2]
  EC50: 0.931 µM (active)

## COc1c(CC=C(C)C)cc(C2CC(=O)c3c(O)cc(O)cc3O2)c(CC=C(C)C)c1O (configuration not stated)
[5]
  EC50: 3.02 µM (active)
Streptococcus
  EC50: 2.9 µM (active)

## Cc1[nH]cnc1C(=O)N/N=C/c1ccc([N+](=O)[O-])s1
[5]
  EC50: 2.91 µM (active)
Streptococcus
  EC50: 5.18 µM (active)
[1]
  EC50: > 60 µM (not active)
[2]
  EC50: 0.449 µM (active)

## O=C(CCNS(=O)(=O)c1cccs1)N1CCc2ccccc2C1
Cytochrome P450 3A4
  AC50: 14.1 µM (inconclusive)

## Cc1c(C(=O)Nc2nc3ccccc3[nH]2)oc2ccc(Br)cc12
[1]
  EC50: > 60 µM (not active)
[2]
  EC50: 1.63 µM (active)

## CN1CCN(c2nc(N3CCN(c4ccccc4)CC3)ncc2F)CC1
[1]
  EC50: > 30 µM (not active)
[2]
  EC50: 0.253 µM (active)

## Cc1noc(C)c1CSc1nc2sc(C)c(C)c2c(=O)n1-c1ccccc1
[1]
  EC50: > 60 µM (not active)
[2]
  EC50: 1.02 µM (active)

## O=C(OCCN1C(=O)c2ccccc2C1=O)c1cccc(OC(F)F)c1
[3]
  EC50: > 53 µM (inactive)
[4]
  IC50: > 47.1 µM (inactive)
